Measurements taken from patent publication US10875876B2, “Cyclized sulfamoylarylamide derivatives and the use thereof as medicaments for the treatment of hepatitis B” (priority 2015, dated 2020).
Read-outs that look alike come from different tables or passages of the source.

Key:
HBV = assay: anti HBV activity, HepG2.117 cell line, intracellular HBV DNA by realtime PCR; assay type: cell-based; conditions: HepG2.117 cell line (Tet-off), 3 days of treatment, intracellular HBV DNA quantified by realtime PCR, read-out: HBV-AVE-HepG2.117 EC50
How it was run: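 Readout was intracellular HBV DNA by real-time PCR (HBV-specific primers and probe) after 3 days of compound exposure. Serial dilutions were tested in duplicate on HepG2.117 cells, a stable inducible HBV producer in which replication is switched on when doxycycline is absent.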

HepG2 cells = assay: Cytotoxicity in HepG2 cells, Resazurin assay; conditions: read-out: TOX-HepG2-4 d CC50; HepG2 cells incubated for 4 days, viability by Resazurin assay
[1] = Hepatitis B virus, HepG2.117, 72 h

| SMILES | EC50 (HBV) [µM] | CC50 (HepG2 cells) [µM] | EC50 (HBV; [1]) [µM] |
| --- | --- | --- | --- |
| CC(C)C(O)C1COc2c(cn(C)c2C(=O)Nc2ccc(F)c(F)c2)S(=O)(=O)N1 (single isomer, unassigned) [Compound 114b, N-(3,4-difluorophenyl)-3-(1-hydroxy-2-methyl-propyl)-7-methyl-1,1-dioxo-3,4-dihydro-2H-pyrrolo[3,4-b][1,4,5]oxathiazepine-6-carboxamide] | 0.008 | > 25 | – |
| Cn1cc2c(c1C(=O)Nc1ccc(F)c(C#N)c1)CCC(C(C)(C)O)NS2(=O)=O (single isomer, unassigned) [Compound 116b, N-(3-cyano-4-fluoro-phenyl)-3-(1-hydroxy-1-methyl-ethyl)-7-methyl-1,1-dioxo-2,3,4,5-tetrahydropyrrolo[3,4-f]thiazepine-6-carboxamide] | > 0.35 | > 25 | – |
| CCC1(C)COc2c(cn(C)c2C(=O)Nc2ccc(F)c(F)c2)S(=O)(=O)N1 (single isomer, unassigned) [Compound 134b, N-(3,4-difluorophenyl)-3-ethyl-3,7-dimethyl-1,1-dioxo-2,4-dihydropyrrolo[3,4-b][1,4,5]oxathiazepine-6-carboxamide] | 0.007 | > 25 | – |
| CCC(O)[C@@H]1COc2c(cn(C)c2C(=O)Nc2ccc(F)c(C(F)F)c2)S(=O)(=O)N1 (single isomer, unassigned) [Compound 144b, N-[3-(difluoromethyl)-4-fluoro-phenyl]-3-(1-hydroxypropyl)-7-methyl-1,1-dioxo-3,4-dihydro-2H-pyrrolo[3,4-b][1,4,5]oxathiazepine-6-carboxamide] | 0.063 | > 25 | – |
| Cn1cc2c(c1C(=O)Nc1ccc(F)c(F)c1)OCC(C)(c1cnccn1)NS2(=O)=O (single isomer, unassigned) [Compound 145b, N-(3,4-difluorophenyl)-3,7-dimethyl-1,1-dioxo-3-pyrazin-2-yl-2,4-dihydropyrrolo[3,4-b][1,4,5]oxathiazepine-6-carboxamide] | 0.06 | > 25 | – |
| Cn1cc2c(c1C(=O)Nc1cc(F)c(F)c(F)c1)CCC(C(C)(C)O)NS2(=O)=O (single isomer, unassigned) [Compound 149b, 3-(1-hydroxy-1-methyl-ethyl)-7-methyl-1,1-dioxo-N-(3,4,5-trifluorophenyl)-2,3,4,5-tetrahydropyrrolo[3,4-f]thiazepine-6-carboxamide] | 0.01 | > 25 | – |
| Cn1cc2c(c1C(=O)Nc1ccc(F)c(C(F)F)c1)CCC(C(C)(C)O)NS2(=O)=O (single isomer, unassigned) [Compound 150b, N-[3-(difluoromethyl)-4-fluoro-phenyl]-3-(1-hydroxy-1-methyl-ethyl)-7-methyl-1,1-dioxo-2,3,4,5-tetrahydropyrrolo[3,4-f]thiazepine-6-carboxamide] | 0.005 | > 25 | – |
| Cn1cc2c(c1C(=O)Nc1ccc(F)c(F)c1)OCC(C)(c1ncccn1)NS2(=O)=O (single isomer, unassigned) [Compound 153b, N-(3,4-difluorophenyl)-3,7-dimethyl-1,1-dioxo-3-pyrimidin-2-yl-2,4-dihydropyrrolo[3,4-b][1,4,5]oxathiazepine-6-carboxamide] | 0.06 | > 25 | – |
| Cn1cc2c(c1C(=O)Nc1ccc(F)c(F)c1)OCC(C)(c1ncco1)NS2(=O)=O (single isomer, unassigned) [Compound 160b, N-(3,4-difluorophenyl)-3,7-dimethyl-3-oxazol-2-yl-1,1-dioxo-2,4-dihydropyrrolo[3,4-b][1,4,5]oxathiazepine-6-carboxamide] | 0.021 | > 25 | – |
| CC(NCC(F)(F)F)C1COc2c(cn(C)c2C(=O)Nc2ccc(F)c(C#N)c2)S(=O)(=O)N1 (single isomer, unassigned) [Compound 161b, N-(3-cyano-4-fluoro-phenyl)-7-methyl-1,1-dioxo-3-[1-(2,2,2-trifluoroethylamino)ethyl]-3,4-dihydro-2H-pyrrolo[3,4-b][1,4,5]oxathiazepine-6-carboxamide] | > 0.125 | > 25 | – |
| CC(NCC(F)(F)F)C1COc2c(cn(C)c2C(=O)Nc2ccc(F)c(C#N)c2)S(=O)(=O)N1 (single isomer, unassigned) [Compound 161c, N-(3-cyano-4-fluoro-phenyl)-7-methyl-1,1-dioxo-3-[1-(2,2,2-trifluoroethylamino)ethyl]-3,4-dihydro-2H-pyrrolo[3,4-b][1,4,5]oxathiazepine-6-carboxamide] | 0.011 | > 25 | – |
| CC(NCC(F)(F)F)C1COc2c(cn(C)c2C(=O)Nc2ccc(F)c(C#N)c2)S(=O)(=O)N1 (single isomer, unassigned) [Compound 161d, N-(3-cyano-4-fluoro-phenyl)-7-methyl-1,1-dioxo-3-[1-(2,2,2-trifluoroethylamino)ethyl]-3,4-dihydro-2H-pyrrolo[3,4-b][1,4,5]oxathiazepine-6-carboxamide] | 0.011 | > 25 | – |
| Cc1cc(CC2(C)COc3c(cn(C)c3C(=O)Nc3ccc(F)c(F)c3)S(=O)(=O)N2)no1 (single isomer, unassigned) [Compound 162b, N-(3,4-difluorophenyl)-3,7-dimethyl-3-[(5-methylisoxazol-3-yl)methyl]-1,1-dioxo-2,4-dihydropyrrolo[3,4-b][1,4,5]oxathiazepine-6-carboxamide] | 0.011 | > 25 | – |
| Cc1cccc(C2(C)COc3c(cn(C)c3C(=O)Nc3ccc(F)c(F)c3)S(=O)(=O)N2)n1 (single isomer, unassigned) [Compound 168b, N-(3,4-difluorophenyl)-3,7-dimethyl-3-(6-methyl-2-pyridyl)-1,1-dioxo-2,4-dihydropyrrolo[3,4-b][1,4,5]oxathiazepine-6-carboxamide] | 0.015 | > 25 | – |
| Cc1cc(CC2(C)COc3c(cn(C)c3C(=O)Nc3cc(F)c(F)c(F)c3)S(=O)(=O)N2)no1 (single isomer, unassigned) [Compound 170b, 3,7-dimethyl-3-[(5-methylisoxazol-3-yl)methyl]-1,1-dioxo-N-(3,4,5-trifluorophenyl)-2,4-dihydropyrrolo[3,4-b][1,4,5]oxathiazepine-6-carboxamide] | – | > 25 | 0.007 |
| Cc1cccc(CC2(C)COc3c(cn(C)c3C(=O)Nc3ccc(F)c(F)c3)S(=O)(=O)N2)n1 (single isomer, unassigned) [Compound 172b, N-(3,4-difluorophenyl)-3,7-dimethyl-3-[(6-methyl-2-pyridyl)methyl]-1,1-dioxo-2,4-dihydropyrrolo[3,4-b][1,4,5]oxathiazepine-6-carboxamide] | 0.064 | > 25 | – |
| Cc1cc(CC2(C)COc3c(cn(C)c3C(=O)Nc3ccc(F)c(F)c3)S(=O)(=O)N2)n(C)n1 (single isomer, unassigned) [Compound 175b, N-(3,4-difluorophenyl)-3-[(2,5-dimethylpyrazol-3-yl)methyl]-3,7-dimethyl-1,1-dioxo-2,4-dihydropyrrolo[3,4-b][1,4,5]oxathiazepine-6-carboxamide] | 0.003 | > 25 | – |
| Cc1cccc(C2(C)COc3c(cn(C)c3C(=O)Nc3ccc(F)c(C(F)F)c3)S(=O)(=O)N2)n1 (single isomer, unassigned) [Compound 177b, N-[3-(difluoromethyl)-4-fluoro-phenyl]-3,7-dimethyl-3-(6-methyl-2-pyridyl)-1,1-dioxo-2,4-dihydropyrrolo[3,4-b][1,4,5]oxathiazepine-6-carboxamide] | – | > 25 | 0.004 |
